Test results: BindingDB's records for PubMed 28813519 (Erasmus University Medical Center)

Legend:
[1] = Inhibition of BRD4 in mouse MPNST cells assessed as reduction in cell viability incubated for 72 hrs by SRB assay
[2] = Inhibition of BRD4 in mouse primary skin-derived precursors (Nf1-/-, P53-/-) assessed as reduction in cell viability incubated for 72 hrs by SRB assay

Cc1sc2c(c1C)C(c1ccc(Cl)cc1)=N[C@@H](CC(=O)OC(C)(C)C)c1nnc(C)n1-2
IC50 [1]: < 400 nM | IC50 [2]: < 400 nM
